Measured values from patent US20210094933A1, “RAPAFUCIN DERIVATIVE COMPOUNDS AND METHODS OF USE THEREOF” (The Johns Hopkins University, priority 2019, published 2021).

Experiments:
H929 = assay: Cell proliferation assay (Prolif.), IC50 relative to DMSO control; type: cell-based; details: H929 cells, IC50 class relative to DMSO control
Method: Cell Proliferation Assay (Prolif.) Guo et al. (2018) Nat. Chem. 11:254-63. Specific cell lines are indicated in each assay and cultured in complete growth media. Activity is scored according to the IC50 values relative to DMSO control. “Low” indicates an IC50 greater than 600 nM, “Medium” indicates an IC50 between 300 nM and 600 nM “High” indicates an IC50 less than 300 nM. “Rel.Uptake” refers to uptake activity characterization relative to a single concentration assay. “Low” indicates a response greater than 0.6 times the activity relative to DMSO, “Medium” indicates a response between 0.6 and 0.3 times the activity relative to DMSO, “High” indicates a response less than 0.3 times the activity relative to DMSO.

[1] = Nucleoside uptake assay, single concentration (Rel.Uptake), response relative to DMSO; cell line indicated in each table; type: cell-based; details: 293 T cells, nucleoside uptake at single concentration
Method: Nucleoside Uptake Assay (uptake). Nuceloside uptake assays were performed with using 3H-Thymidine as described in Guo et al. (2018) Nat. Chem, 11:254-63. Specific cell lines are indicated in each assay and cultured in complete growth media. Activity is scored according to the IC50 values relative to DMSO control. “Low” indicates an IC50 greater than 600 nM, “Medium” indicates an IC50 between 300 nM and 600 nM “High” indicates an IC50 less than 300 nM. “Rel.Uptake” refers to uptake activity characterization relative to a single concentration assay. “Low” indicates a response greater than 0.6 times the activity relative to DMSO, “Medium” indicates a response between 0.6 and 0.3 times the activity relative to DMSO, “High” indicates a response less than 0.3 times the activity relative to DMSO.

Structure (SMILES) | Prolif, H929 (H929) | Rel. Uptake, 293 T [1]
COc1cc(CC[C@H]2OC(=O)[C@@H]3CCCCN3C(=O)C(=O)C(C)(C)COC(=O)C=CCCN(C)C(=O)[C@@H](Cc3ccccc3)NC(=O)CN(C)C(=O)[C@@H](Cc3ccccc3)NC(=O)[C@H](Cc3ccc(O)cc3)N(C)C(=O)COc3cccc2c3)cc(OC)c1OC [Compound 1566] | medium | medium
COc1cc(CC[C@H]2OC(=O)[C@@H]3CCCCN3C(=O)C(=O)C(C)(C)COC(=O)C=CCCN(C)C(=O)[C@@H](Cc3ccccc3)NC(=O)CN(C)C(=O)[C@@H](Cc3ccccc3)NC(=O)[C@H](Cc3ccc(O)cc3)N(C)C(=O)COc3cccc2c3)cc(O)c1OC [Compound 1567] | medium | medium
COc1cc(O)c(CC[C@H]2OC(=O)[C@@H]3CCCCN3C(=O)C(=O)C(C)(C)COC(=O)C=CCCN(C)C(=O)[C@@H](Cc3ccccc3)NC(=O)CN(C)C(=O)[C@@H](Cc3ccccc3)NC(=O)[C@H](Cc3ccc(O)cc3)N(C)C(=O)COc3cccc2c3)cc1OC [Compound 1568] | low | low
COc1cc(CC[C@H]2OC(=O)[C@@H]3CCCCN3C(=O)C(=O)C(C)(C)COC(=O)C=CCCN(C)C(=O)[C@@H](Cc3ccccc3)NC(=O)CN(C)C(=O)[C@@H](Cc3ccccc3)NC(=O)[C@H](Cc3ccc(O)cc3)N(C)C(=O)COc3cccc2c3)cc(F)c1OC [Compound 1569] | low | low
COc1cc(F)c(CC[C@H]2OC(=O)[C@@H]3CCCCN3C(=O)C(=O)C(C)(C)COC(=O)C=CCCN(C)C(=O)[C@@H](Cc3ccccc3)NC(=O)CN(C)C(=O)[C@@H](Cc3ccccc3)NC(=O)[C@H](Cc3ccc(O)cc3)N(C)C(=O)COc3cccc2c3)cc1OC [Compound 1570] | medium | medium
COc1ccc(CC[C@H]2OC(=O)[C@@H]3CCCCN3C(=O)C(=O)C(C)(C)COC(=O)C=CCCN(C)C(=O)[C@@H](Cc3ccccc3)NC(=O)CN(C)C(=O)[C@@H](Cc3ccccc3)NC(=O)[C@H](Cc3ccc(O)cc3)N(C)C(=O)COc3cccc2c3)c(F)c1OC [Compound 1571] | low | low
COc1ccc(CC[C@H]2OC(=O)[C@@H]3CN(C(=O)OCC4c5ccccc5-c5ccccc54)CCN3C(=O)C(=O)C(C)(C)COC(=O)C=CCCN(C)C(=O)[C@@H](Cc3ccccc3)NC(=O)CN(C)C(=O)[C@@H](Cc3ccccc3)NC(=O)[C@H](Cc3ccc(O)cc3)N(C)C(=O)COc3cccc2c3)cc1OC [Compound 1572] | low | low
COc1ccc(CC[C@H]2OC(=O)[C@@H]3CNCCN3C(=O)C(=O)C(C)(C)COC(=O)C=CCCN(C)C(=O)[C@@H](Cc3ccccc3)NC(=O)CN(C)C(=O)[C@@H](Cc3ccccc3)NC(=O)[C@H](Cc3ccc(O)cc3)N(C)C(=O)COc3cccc2c3)cc1OC [Compound 1573] | low | low
COc1ccc(CC[C@H]2OC(=O)[C@@H]3CN(C)CCN3C(=O)C(=O)C(C)(C)COC(=O)C=CCCN(C)C(=O)[C@@H](Cc3ccccc3)NC(=O)CN(C)C(=O)[C@@H](Cc3ccccc3)NC(=O)[C@H](Cc3ccc(O)cc3)N(C)C(=O)COc3cccc2c3)cc1OC [Compound 1574] | low | low
COc1ccc(CC[C@H]2OC(=O)[C@@H]3CCCCN3C(=O)C(=O)C(C)(C)COC(=O)C=CCCN(C)C(=O)[C@@H](Cc3ccccc3)NC(=O)CN(C)C(=O)[C@@H](Cc3ccccc3)NC(=O)[C@H](Cc3ccc(O)cc3)N(C)C(=O)COc3ccc(F)c2c3)cc1OC [Compound 1575] | low | low
COc1ccc(CC[C@H]2OC(=O)[C@@H]3CCCCN3C(=O)C(=O)C(C)(C)COC(=O)C=CCCN(C)C(=O)[C@@H](Cc3ccccc3)NC(=O)CN(C)C(=O)[C@@H](Cc3ccccc3)NC(=O)[C@H](Cc3ccc(O)cc3)N(C)C(=O)COc3cc(F)cc2c3)cc1OC [Compound 1576] | medium | medium
COc1ccc(CC[C@H]2OC(=O)[C@@H]3CCCCN3C(=O)C(=O)C(C)(C)COC(=O)C=CCCN(C)C(=O)[C@@H](Cc3ccccc3)NC(=O)CN(C)C(=O)[C@@H](Cc3ccccc3)NC(=O)[C@H](Cc3ccc(O)cc3)N(C)C(=O)COc3cccc2c3)c(OC)c1OC [Compound 1577] | medium | medium
COc1ccc(CC[C@H]2OC(=O)[C@@H]3CCCCN3C(=O)C(=O)C(C)(C)COC(=O)C=CCCN(C)C(=O)[C@@H](Cc3ccccc3)NC(=O)CN(C)C(=O)[C@@H](Cc3ccccc3)NC(=O)[C@H](Cc3ccc(O)cc3)N(C)C(=O)COc3cc2ccc3F)cc1OC [Compound 1578] | low | low
COc1ccc(CC[C@H]2OC(=O)[C@@H]3CCCCN3C(=O)C(=O)C(C)(C)COC(=O)C=CCCN(C)C(=O)[C@@H](Cc3ccccc3)NC(=O)CN(C)C(=O)[C@@H](Cc3ccccc3)NC(=O)[C@H](Cc3ccc(O)cc3)N(C)C(=O)COc3cccc2c3F)cc1OC [Compound 1579] | medium | medium
COc1ccc(CC[C@H]2OC(=O)[C@@H]3CCCCN3C(=O)C(=O)C(C)(C)COC(=O)C=CCCN(C)C(=O)[C@@H](Cc3ccccc3)NC(=O)CN(C)C(=O)[C@@H](Cc3ccccc3)NC(=O)[C@H](Cc3ccc(O)cc3)N(C)C(=O)COc3cncc2c3)cc1OC [Compound 1580] | low | low
COc1cc(OC)c(OC)cc1CC[C@H]1OC(=O)[C@@H]2CCCCN2C(=O)C(=O)C(C)(C)COC(=O)C=CCCN(C)C(=O)[C@@H](Cc2ccccc2)NC(=O)CN(C)C(=O)[C@@H](Cc2ccccc2)NC(=O)[C@H](Cc2ccc(O)cc2)N(C)C(=O)COc2cccc1c2 [Compound 1581] | medium | medium
COc1cc(CC[C@H]2OC(=O)[C@@H]3CCCCN3C(=O)C(=O)C(C)(C)COC(=O)C=CCCN(C)C(=O)[C@@H](Cc3ccccc3)NC(=O)CN(C)C(=O)[C@@H](Cc3ccccc3)NC(=O)[C@H](Cc3ccc(O)cc3)N(C)C(=O)COc3cccc2c3)c(OC)c(OC)c1 [Compound 1582] | low | low
COc1ccc(OC)c(OC)c1CC[C@H]1OC(=O)[C@@H]2CCCCN2C(=O)C(=O)C(C)(C)COC(=O)C=CCCN(C)C(=O)[C@@H](Cc2ccccc2)NC(=O)CN(C)C(=O)[C@@H](Cc2ccccc2)NC(=O)[C@H](Cc2ccc(O)cc2)N(C)C(=O)COc2cccc1c2 [Compound 1583] | low | low
COc1ccc(CC[C@H]2OC(=O)[C@@H]3CCCCN3C(=O)C(=O)C(C)(C)COC(=O)C=CCCN(C)C(=O)[C@@H]3CCCN3C(=O)[C@H](COC(C)(C)C)N(C)C(=O)[C@@H](c3ccccc3)NC(=O)[C@H](C)N(C)C(=O)COc3cc(F)cc2c3)cc1OC [Compound 1595] | – | Low (“Low” indicates a response greater than 0.6 times the activity relative to DMSO)
COc1ccc(CC[C@H]2OC(=O)[C@@H]3CCCCN3C(=O)C(=O)C(C)(C)COC(=O)C=CCCN(C)C(=O)[C@@H]3CCCN3C(=O)[C@H](COC(C)(C)C)N(C)C(=O)[C@H](c3ccccc3)NC(=O)[C@H](C)N(C)C(=O)COc3cc(F)cc2c3)cc1OC [Compound 1596] | – | Low (“Low” indicates a response greater than 0.6 times the activity relative to DMSO)
